What is called EC50 is the concentration giving half of the maximal effect. Usually IC50 stands for the midpoint of a concentration-inhibition curve.

The record followed here is US8247573B2, “Substituted N-(2-mercaptopyridin-3-yl)amides as KCNQ2/3 modulators” (Gruenenthal GmbH, priority 2009, dated 2012).

One experiment addresses T1, KCNQ2/3 channels (Homo sapiens, UniProt O43525+O43526).
T1 construct: expressed in transfected cells; host or cells: CHO-K1
As to the kind of experiment: Fluorescence assay using a voltage-sensitive dye (fluorimetry). It counts as cell-based. The settings on record: CHO-K1 cells expressing KCNQ2/3; for EC50: agonistic activity; for Emax: relative to retigabine = 100%, negative values = antagonistic, read-out: Fluorimetry % efficacy (I/EC50, retigabine = 100%). As for the experimental part:
Pharmacological Experiments Fluorescence Assay Using a Voltage-Sensitive Dye
Human CHO-K1 cells expressing KCNQ2/3 channels are cultivated adherently at 37° C., 5% CO2 and 95% humidity in cell culture bottles (e.g. 80 cm^2 TC flasks, Nunc) with DMEM-high glucose (Sigma Aldrich, D7777) including 10% FCS (PAN Biotech, e.g. 3302-P270521) or alternatively MEM Alpha Medium (1×, liquid, Invitrogen, #22571), 10% foetal calf serum (FCS) (Invitrogen, #10270-106, heat-inactivated) and the necessary selection antibiotics.
Before being seeded out for the measurements, the cells are washed with a 1×DPBS buffer without Ca^2+/Mg^2+ (e.g. Invitrogen, #14190-094) and detached from the bottom of the culture vessel by means of Accutase (PAA Laboratories, #L11-007) (incubation with Accutase for 15 min at 37° C.). The cell count then present is determined using a CASY™ cell counter (TCC model, Schärfe System) in order subsequently to apply 20,000 to 30,000 cells/well/100 μl of the described nutrient medium, depending on density optimisation for the individual cell line, to 96-well measuring plates of the Corning™ CellBIND™ type (flat clear-bottom black polystyrene microplates, #3340). Incubation is then carried out for one hour at room temperature, without gassing or adjusting the humidity, followed by incubation for 24 hours at 37° C., 5% CO2 and 95% humidity.
The voltage-sensitive fluorescent dye from the Membrane Potential Assay Kit (Red™ bulk format part R8123 for FLIPR, MDS Analytical Technologies™) is prepared by dissolving the contents of a vessel of Membrane Potential Assay Kit Red Component A in 200 ml of extracellular buffer (ES buffer, 120 mM NaCl, 1 mM KCl, 10 mM HEPES, 2 mM CaCl2, 2 mM MgCl2, 10 mM glucose; pH 7.4). After removal of the nutrient medium, the cells are washed with 200 μl of ES buffer, then covered with a layer of 100 μl of the dye solution prepared above and incubated for 45 min at room temperature with exclusion of light.
The fluorescence measurements are carried out with a BMG Labtech FLUOstar™, BMG Labtech NOVOstar™ or BMG Labtech POLARstar™ instrument (525 nm excitation, 560 nm emission, bottom-read mode). After incubation of the dye, 50 μl of the substances to be tested in the desired concentrations, or 50 μl of ES buffer for control purposes, are introduced into separate cavities of the measuring plate and incubated for 30 min at room temperature whilst being shielded from light. The fluorescence intensity of the dye is then measured for 5 min and the fluorescence value F1 of each well is thus determined at a given, constant time. 15 μl of a […] KCl solution […] are then added to each well. The change in fluorescence is subsequently measured until all relevant measured values have been obtained (mainly […]). At a given time after KCl application, a fluorescence value F2 is determined, in this case at the time of the fluorescence peak.
For calculation, the fluorescence intensity F2 is compared with the fluorescence intensity F1, and the agonistic activity of the target compound on the potassium channel is determined therefrom. F2 and F1 are calculated as follows: […]
In order to determine whether a substance has an agonistic activity,
[formula] is determined by adding to the reaction batch only the buffer solution instead of the substance to be tested, determining the value F1K of the fluorescence intensity, adding the potassium ions as described above and measuring a value F2K of the fluorescence intensity. Then F2K and F1K are calculated as follows: […]
A substance has an agonistic activity on the potassium channel if
Independently of the comparison of
[formula] it is also possible to conclude that a target compound has an agonistic activity if an increase in
[formula] is to be observed as the dosage of the target compound increases.
Calculations of EC50 values are carried out with the aid of Prism v4.0 software (GraphPad Softwares™).

A further experiment relates to mice. As to the kind of experiment: Formalin test in mice. It counts as in vivo. The settings on record: 4.64 mg/kg, phase 2 (chronic pain), change versus vehicle control. As for the experimental part:
The formalin test (Dubuisson, D. and Dennis, S. G., 1977, Pain, 4, 161-174) is a model for acute and chronic pain. A single formalin injection into the dorsal side of one rear paw is used to induce a biphase nociceptive response in experimental animals allowed to move freely, and the response is recorded by observation of three clearly distinguishable behaviour patterns. The response comprises two phases: phase 1=immediate response (duration up to 10 min; shaking of paw, licking), phase 2=delayed response (after a rest phase; likewise shaking of paw, licking; duration up to 60 min). […] In the experiments presented here the chronic pain component (phase 2) was evaluated.
Formalin is administered subcutaneously in a volume of 20 μl and a concentration of 1% into the dorsal side of the right rear paw of each animal. The specific behavioural changes, such as lifting, shaking or licking the paw (score 3, Dubuisson & Dennis, 1977), were observed and recorded during the observation period of 21 to 24 min after formalin injection. […]
Based on the quantification of the pain behaviour, the effect of the substance in the formalin test was determined as the change in comparison to the control as a percentage. […]

Each structure is given as a SMILES string.

Take `O=C(Cc1cccs1)Nc1cccnc1SCCS(=O)(=O)c1cccc(C(F)(F)F)c1` [Example 3, 2-Thiophen-2-yl-N-[2-[2-[[3-(trifluoromethyl)phenyl]sulfonyl]-ethylsulfanyl]-pyridin-3-yl]acetamide]: on KCNQ2/3 channels, the 50% effective concentration (EC50) amounted to 31 nM and the Emax worked out at 164%. Further, in the experiment with mice, the “Formalin test in mice IV Effect @ dose [mg/kg]” value is listed as 87% @ 4.64.
For the compound `O=C(Nc1cccnc1SCCS(=O)(=O)c1cccc(C(F)(F)F)c1)c1ccc(F)cc1O` [Example 51, 4-Fluoro-2-hydroxy-N-[2-[2-[[3-(trifluoromethyl)phenyl]sulfonyl]-ethylsulfanyl]-pyridin-3-yl]benzamide], on KCNQ2/3 channels, the response was half-maximal at 106 nM (EC50) and the Emax was found to be 32%.
In the case of `O=C(/C=C/c1ccc(F)cc1)Nc1cccnc1SCCS(=O)(=O)c1cccc(C(F)(F)F)c1` [Example 31, (E)-3-(4-Fluorophenyl)-N-[2-[2-[[3-(trifluoromethyl)phenyl]sulfonyl]-ethylsulfanyl]-pyridin-3-yl]acrylamide], on KCNQ2/3 channels, it took 841 nM to reach a half-maximal effect (EC50) and the Emax stood at 109%.
For `O=C(Cc1cccs1)Nc1cccnc1SCCOc1cccc(C(F)(F)F)c1` [Example 22, 2-Thiophen-2-yl-N-[2-[2-[3-(trifluoromethyl)-phenoxy]-ethylsulfanyl]-pyridin-3-yl]acetamide], in that order: 732 nM and 155%.
For `O=C(Cc1ccc2ccccc2c1)Nc1cccnc1SCCS(=O)(=O)c1cccc(C(F)(F)F)c1` [Example 24, 2-Naphthalen-2-yl-N-[2-[2-[[3-(trifluoromethyl)phenyl]sulfonyl]-ethylsulfanyl]-pyridin-3-yl]acetamide], in that order: 153 nM and 84%.
For `O=C(Nc1cccnc1SCCOc1ccc(F)cc1)c1ccc(F)c(F)c1` [Example 64, 3,4-Difluoro-N-[2-[2-(4-fluorophenoxy)-ethylsulfanyl]-pyridin-3-yl]benzamide], in that order: 200 nM and 49%.
For the compound `O=C(CCC1CCc2ccccc2C1)Nc1cccnc1SCCS(=O)(=O)c1cccc(C(F)(F)F)c1` (stereo not drawn) [Example 57, 3-(1,2,3,4-Tetrahydronaphthalen-2-yl)-N-[2-[2-[[3-(trifluoromethyl)phenyl]sulfonyl]-ethylsulfanyl]-pyridin-3-yl]propionamide], on KCNQ2/3 channels, the concentration for a half-maximal effect (EC50) stood at 56.5 nM and the Emax stood at 134%.
On to `Cc1cc(C)cc(C(C)C(=O)Nc2cccnc2SCCS(=O)(=O)c2ccccc2)c1` (stereo not drawn) [Example 8, N-[2-[2-(Benzenesulfonyl)-ethylsulfanyl]-pyridin-3-yl]-2-(3,5-dimethylphenyl)propionamide], for which, on KCNQ2/3 channels (antagonistic activity), the midpoint of inhibition, the IC50, lay at 322 nM. For the same compound, the Emax on KCNQ2/3 channels is -68%.
Take `O=C(Nc1cccnc1SCCS(=O)(=O)c1cccc(C(F)(F)F)c1)c1cccs1` [Example 18, N-[2-[2-[[3-(Trifluoromethyl)phenyl]sulfonyl]-ethylsulfanyl]-pyridin-3-yl]-thiophene-2-carboxylic acid amide]: on KCNQ2/3 channels, the midpoint of the response, the EC50, lay at 457 nM and the Emax is 43%.
`O=C(Cc1cc2ccccc2s1)Nc1cccnc1SCCS(=O)(=O)c1cccc(C(F)(F)F)c1` [Example 59, 2-(Benzo[b]thiophen-2-yl)-N-[2-[2-[[3-(trifluoromethyl)phenyl]sulfonyl]-ethylsulfanyl]-pyridin-3-yl]acetamide]: at KCNQ2/3 channels, the EC50 worked out at 925 nM and the Emax is 139%.
